Measurements as given in article PMC11417675, “Systematic Evaluation of Tyrosine Kinase Inhibitors as OATP1B1 Substrates Using a Competitive Counterflow Screen” (Cancer Research Communications, 2024).
Where two headings read alike, the source gives them in different places. Values belong to the molecule of their own block, whether it stands above or below them.

How the values were obtained:
[1] = target: T1, OATP1B1 (Homo sapiens, UniProt Q9Y6L6); assay: Competitive counterflow (CCF) assay, efflux of preloaded [3H]-EβG in OATP1B1-overexpressing HEK293 cells; conditions: for hit in CCF assay (efflux >50% relative to EβG): at all three tested concentrations (1, 10, 100 μmol/L); for efflux of preloaded radiolabeled EβG induced by control substrates: 100 μmol/L, 30 min, after 1 h preload with 0.01 μmol/L [3H]-EβG
T1 sequence (Q9Y6L6 1-691): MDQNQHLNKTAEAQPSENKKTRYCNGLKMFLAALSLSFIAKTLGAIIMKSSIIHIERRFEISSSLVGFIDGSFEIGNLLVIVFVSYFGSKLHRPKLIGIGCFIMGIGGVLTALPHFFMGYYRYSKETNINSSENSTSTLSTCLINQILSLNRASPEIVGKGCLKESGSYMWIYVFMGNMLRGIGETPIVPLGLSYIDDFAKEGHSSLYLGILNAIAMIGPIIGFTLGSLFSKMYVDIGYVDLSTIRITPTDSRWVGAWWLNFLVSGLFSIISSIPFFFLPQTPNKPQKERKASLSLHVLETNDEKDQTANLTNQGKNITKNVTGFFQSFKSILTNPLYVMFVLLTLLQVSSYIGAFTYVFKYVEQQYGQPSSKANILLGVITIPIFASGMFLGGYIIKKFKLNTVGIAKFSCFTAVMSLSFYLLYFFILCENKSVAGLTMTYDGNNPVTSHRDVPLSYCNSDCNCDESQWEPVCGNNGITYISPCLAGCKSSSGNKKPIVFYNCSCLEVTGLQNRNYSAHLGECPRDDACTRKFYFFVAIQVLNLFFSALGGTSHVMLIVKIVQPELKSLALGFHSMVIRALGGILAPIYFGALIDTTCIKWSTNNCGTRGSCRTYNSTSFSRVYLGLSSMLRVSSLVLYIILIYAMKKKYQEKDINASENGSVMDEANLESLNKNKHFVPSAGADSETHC
Description: Cellular accumulation assays were performed in human embryonic kidney cells (HEK293; RRID: CVCL_0045) that were genetically engineered to overexpress human OATP1B1 ([23]–[25]). Cell lines were authenticated by Applied Biosystems AmpFISTR Identifiler testing with PCR amplification. […] All cells were used within passage 30 and verified to be Mycoplasma-free using the MycoAlert Mycoplasma Detection Kit (Lonza). At 80% to 90% confluency, cells were seeded on poly-D-lysine–coated 96-well plates 24 hours prior to the assay (2,500 cells/well), and expression of OATP1B1 was induced with 1 μg/mL doxycycline in phenol red–free DMEM.
The CCF assay uses OATP1B1-overexpressing HEK293 cells seeded and cultured as described above. During the study, cells were preincubated at room temperature (∼ 20°C) with 0.01 μmol/L EβG in prewarmed serum-free and phenol red–free DMEM for 1 hour. Following preincubation, each well was spiked with 1 μL of a stock solution containing 0.1, 1, or 10 mmol/L of positive control (EβG), negative control (glucose), test compound dissolved in Dimethylsulfoxide (DMSO), or DMSO only as a vehicle control. Following a 30-minute after incubation with a test compound, the assay was stopped by three consecutive washes with PBS at 4°C. Finally, cells were solubilized with 150 μL of 1% Triton X-100 in PBS for 2 hours at room temperature under constant agitation. A volume of 100 μL of cell lysate was transferred to clear-bottom 96-well isoplates, 200 μL of MicroScint-PS (PerkinElmer) scintillation fluid was added to each sample-containing well, and the plate was subsequently vortex-mixed for 30 seconds. Total radioactivity was determined on a MicroBeta microplate scintillation counter (PerkinElmer), and the resulting counts were then normalized to total protein as determined using a Pierce protein assay (Thermo Fisher Scientific).

[2] = tested on: OATP1B1; conditions: cited from earlier work; for reported to inhibit OATP1B1: literature reports, ref not given
[3] = target: T2, VEGFR2 (Homo sapiens, UniProt P35968); assay: IP-based VEGFR kinase assay (ADP-Glo) in OATP1B1-overexpressing vs vector control HEK293 cells; format: cell-based; conditions: 10 μmol/L, 1 h; OATP1B1-overexpressing cells compared with control cells not overexpressing OATP1B1
T2 construct: expressed in transfected cells; host or cells: HEK293 (OATP1B1-overexpressing or empty vector)
T2 sequence (P35968 20-1356, species assumed): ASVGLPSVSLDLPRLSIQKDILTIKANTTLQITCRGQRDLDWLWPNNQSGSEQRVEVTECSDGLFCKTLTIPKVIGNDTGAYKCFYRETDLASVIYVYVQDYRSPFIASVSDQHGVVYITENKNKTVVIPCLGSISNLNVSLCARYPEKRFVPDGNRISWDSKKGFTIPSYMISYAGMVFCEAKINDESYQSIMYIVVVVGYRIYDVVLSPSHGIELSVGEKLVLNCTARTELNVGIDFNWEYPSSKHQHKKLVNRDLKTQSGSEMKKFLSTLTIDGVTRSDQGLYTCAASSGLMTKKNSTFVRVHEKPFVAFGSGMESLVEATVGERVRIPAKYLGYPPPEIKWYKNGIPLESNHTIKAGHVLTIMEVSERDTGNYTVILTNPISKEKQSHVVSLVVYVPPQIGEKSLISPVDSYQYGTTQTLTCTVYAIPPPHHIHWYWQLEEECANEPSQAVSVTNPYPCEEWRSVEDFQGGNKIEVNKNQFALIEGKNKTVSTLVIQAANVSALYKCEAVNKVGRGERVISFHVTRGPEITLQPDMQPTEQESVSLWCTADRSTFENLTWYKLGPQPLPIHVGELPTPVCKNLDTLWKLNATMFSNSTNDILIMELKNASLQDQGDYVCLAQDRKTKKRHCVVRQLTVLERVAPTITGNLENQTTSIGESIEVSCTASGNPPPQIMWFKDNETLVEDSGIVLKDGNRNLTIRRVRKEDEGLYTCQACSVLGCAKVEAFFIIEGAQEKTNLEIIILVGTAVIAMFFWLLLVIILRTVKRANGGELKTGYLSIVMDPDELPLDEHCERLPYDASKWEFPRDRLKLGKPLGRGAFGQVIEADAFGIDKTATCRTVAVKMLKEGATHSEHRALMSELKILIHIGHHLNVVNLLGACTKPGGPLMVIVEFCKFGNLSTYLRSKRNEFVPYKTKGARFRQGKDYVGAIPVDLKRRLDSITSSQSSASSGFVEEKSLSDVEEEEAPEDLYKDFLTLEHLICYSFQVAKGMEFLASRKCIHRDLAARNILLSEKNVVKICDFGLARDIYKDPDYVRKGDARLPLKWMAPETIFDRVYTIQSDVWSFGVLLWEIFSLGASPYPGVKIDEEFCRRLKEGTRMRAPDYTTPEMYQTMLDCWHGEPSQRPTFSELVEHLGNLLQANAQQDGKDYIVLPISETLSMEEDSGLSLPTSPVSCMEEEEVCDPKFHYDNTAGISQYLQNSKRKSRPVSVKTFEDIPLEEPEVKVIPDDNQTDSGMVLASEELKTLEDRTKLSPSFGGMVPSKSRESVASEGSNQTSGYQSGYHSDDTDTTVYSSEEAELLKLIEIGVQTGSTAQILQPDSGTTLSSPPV

[4] = tested on: OATP2B1; conditions: General Comments; ref PMID#25165131; cited from earlier work
[5] = tested on: OCTN2; design: method as in PMID#25165131; conditions: General Comments; ref PMID#25165131; cited from earlier work
[6] = tested on: OATP1A2; conditions: General Comments; ref PMID#25165131; cited from earlier work

pattern of efflux vs concentration in CCF assay ([1]; 1, 10 and 100 μmol/L): clearly dependent on concentration
Structure (SMILES): C=CC(=O)Nc1cc(Nc2nccc(-c3cn(C)c4ccccc34)n2)c(OC)cc1N(C)CCN(C)C [Osimertinib]

pattern of efflux vs concentration in CCF assay ([1]; 1, 10 and 100 μmol/L): solely at lower concentrations
Structure (SMILES): Cc1nc(Nc2ncc(C(=O)Nc3c(C)cccc3Cl)s2)cc(N2CCN(CCO)CC2)n1 [Dasatinib]

Structure (SMILES): COC(=O)N[C@@H](C)CNc1nccc(-c2cn(C(C)C)nc2-c2cc(Cl)cc(NS(C)(=O)=O)c2F)n1 [Encorafenib]
reported to inhibit OATP1B1 [2]: reported to inhibit OATP1B1

pattern of efflux vs concentration in CCF assay ([1]; 1, 10 and 100 μmol/L): solely at lower concentrations
Structure (SMILES): CC(C)(C)c1nc(-c2cccc(NS(=O)(=O)c3c(F)cccc3F)c2F)c(-c2ccnc(N)n2)s1 [Dabrafenib]

pattern of efflux vs concentration in CCF assay ([1]; 1, 10 and 100 μmol/L): solely at lower concentrations
Structure (SMILES): Cc1cn(-c2cc(NC(=O)c3ccc(C)c(Nc4nccc(-c5cccnc5)n4)c3)cc(C(F)(F)F)c2)cn1 [Nilotinib]

VEGFR kinase activity after pazopanib [3]: markedly reduced kinase activity
Structure (SMILES): Cc1ccc(Nc2nccc(N(C)c3ccc4c(C)n(C)nc4c3)n2)cc1S(N)(=O)=O [Pazopanib]
previously claimed to be substrates of OATP1B1 [2]: substrates of OATP1B1
reported to inhibit OATP1B1 [2]: reported to inhibit OATP1B1

hit in CCF assay (efflux >50% relative to EβG) [1]: hits
Structure (SMILES): CNC(=O)c1cc(Oc2ccc(NC(=O)Nc3ccc(Cl)c(C(F)(F)F)c3)cc2)ccn1 [Sorafenib]
previously claimed to be substrates of OATP1B1 [2]: substrates of OATP1B1

pattern of efflux vs concentration in CCF assay ([1]; 1, 10 and 100 μmol/L): clearly dependent on concentration
Structure (SMILES): COc1cc2c(Nc3ccc(Br)cc3F)ncnc2cc1OCC1CCN(C)CC1 [Vandetanib]

Structure (SMILES): CCOc1cc2ncc(C#N)c(Nc3ccc(OCc4ccccn4)c(Cl)c3)c2cc1NC(=O)/C=C/CN(C)C [Neratinib]
IC50 [4]: 2680 nM
OCTN2 inhibition (in words) [5]: No inhibition of OATP1B1 and OCTN2 was observed at concentrations up to 10 µM
IC50 [6]: 390 nM

pattern of efflux vs concentration in CCF assay ([1]; 1, 10 and 100 μmol/L): solely at lower concentrations
Structure (SMILES): CO[C@]1(C(=O)N[C@@H](C)c2ccc(-n3cc(F)cn3)nc2)CC[C@H](c2nc(C)cc(Nc3cc(C)[nH]n3)n2)CC1 [Pralsetinib]
reported to inhibit OATP1B1 [2]: reported to inhibit OATP1B1

Structure (SMILES): CO[C@H]1/C=C/O[C@@]2(C)Oc3c(C)c(O)c4c(O)c(c(/C=N/N5CCN(C)CC5)c(O)c4c3C2=O)NC(=O)/C(C)=C\C=C\[C@H](C)[C@H](O)[C@@H](C)[C@@H](O)[C@@H](C)[C@H](OC(C)=O)[C@@H]1C [rifampin]
efflux of preloaded radiolabeled EβG induced by control substrates [1]: induced significant efflux

hit in CCF assay (efflux >50% relative to EβG) [1]: hits
Structure (SMILES): COc1cc(Nc2ncc(F)c(Nc3ccc4c(n3)N(COP(=O)(O)O)C(=O)C(C)(C)O4)n2)cc(OC)c1OC [Fostamatinib]

pattern of efflux vs concentration in CCF assay ([1]; 1, 10 and 100 μmol/L): clearly dependent on concentration
Structure (SMILES): Cc1cc(Nc2ncc(Cl)c(Nc3ccccc3S(=O)(=O)C(C)C)n2)c(OC(C)C)cc1C1CCNCC1 [Ceritinib]

Structure (SMILES): C[C@]12CC[C@@H]3c4ccc(OS(=O)(=O)O)cc4CC[C@H]3[C@@H]1CCC2=O [E3S, estrone-3-sulfate]
efflux of preloaded radiolabeled EβG induced by control substrates [1]: induced significant efflux

pattern of efflux vs concentration in CCF assay ([1]; 1, 10 and 100 μmol/L): solely at lower concentrations
Structure (SMILES): Cn1cnc2c(F)c(Nc3ccc(Br)cc3Cl)c(C(=O)NOCCO)cc21 [Selumetinib]

Structure (SMILES): Cc1ccc(C(=O)Nc2ccc(CN3CCN(C)CC3)c(C(F)(F)F)c2)cc1C#Cc1cnc2cccnn12 [Ponatinib]
Interaction: Substrate OATP1B1 [2]: N
OATP1B1 inhibition (in words) [2]: Inhibits P-gp( IC50 =0.49uM), BCRP (IC50 = 0.013 µM). Did not inhibit OATP1B1, OATP1B3, OCT1, OCT2, OAT1, or OAT3. Not a substrate of OATP1B1, OATP1B3, or OCT1.
OATP1B1 substrate (in words) [2]: Inhibits P-gp( IC50 =0.49uM), BCRP (IC50 = 0.013 µM). Did not inhibit OATP1B1, OATP1B3, OCT1, OCT2, OAT1, or OAT3. Not a substrate of OATP1B1, OATP1B3, or OCT1.

pattern of efflux vs concentration in CCF assay ([1]; 1, 10 and 100 μmol/L): solely at lower concentrations
Structure (SMILES): FC(F)(F)c1ccc(CNc2ccc(Cc3c[nH]c4ncc(Cl)cc34)cn2)cn1 [Pexidartinib]

pattern of efflux vs concentration in CCF assay ([1]; 1, 10 and 100 μmol/L): clearly dependent on concentration
Structure (SMILES): O=C(c1ccc(F)c(F)c1Nc1ccc(I)cc1F)N1CC(O)([C@@H]2CCCCN2)C1 [Cobimetinib]

pattern of efflux vs concentration in CCF assay ([1]; 1, 10 and 100 μmol/L): solely at lower concentrations
Structure (SMILES): CNC(=O)c1ccccc1Sc1ccc2c(/C=C/c3ccccn3)n[nH]c2c1 [Axitinib]
previously claimed to be substrates of OATP1B1 [2]: substrates of OATP1B1

pattern of efflux vs concentration in CCF assay ([1]; 1, 10 and 100 μmol/L): solely at lower concentrations
Structure (SMILES): CS(=O)(=O)CCNCc1ccc(-c2ccc3ncnc(Nc4ccc(OCc5cccc(F)c5)c(Cl)c4)c3c2)o1 [Lapatinib]

pattern of efflux vs concentration in CCF assay ([1]; 1, 10 and 100 μmol/L): clearly dependent on concentration
Structure (SMILES): C[C@@H](Oc1cc(-c2cnn(C3CCNCC3)c2)cnc1N)c1c(Cl)ccc(F)c1Cl [Crizotinib]
previously claimed to be substrates of OATP1B1 [2]: substrates of OATP1B1

efflux of preloaded radiolabeled EβG induced by control substrates [1]: failed to induce efflux
Structure (SMILES): OC[C@H]1OC(O)[C@H](O)[C@@H](O)[C@@H]1O (some centres unmarked) [glucose]

pattern of efflux vs concentration in CCF assay ([1]; 1, 10 and 100 μmol/L): solely at lower concentrations
Structure (SMILES): COc1cc2nccc(Oc3ccc(NC(=O)C4(C(=O)Nc5ccc(F)cc5)CC4)cc3)c2cc1OC [Cabozantinib]

pattern of efflux vs concentration in CCF assay ([1]; 1, 10 and 100 μmol/L): solely at lower concentrations
Structure (SMILES): Cc1cc(Nc2ncnc3ccc(NC4=NC(C)(C)CO4)cc23)ccc1Oc1ccn2ncnc2c1 [Tucatinib]

efflux of preloaded radiolabeled EβG induced by control substrates [1]: induced significant efflux
Structure (SMILES): C[C@]12CC[C@@H]3c4ccc(O)cc4CC[C@H]3[C@@H]1CC[C@@H]2O[C@@H]1O[C@H](C(=O)O)[C@@H](O)[C@H](O)[C@H]1O [EβG, estradiol [6,7-^3H(N)]-17β-D-glucuronide]

pattern of efflux vs concentration in CCF assay [1]: clearly dependent on concentration
Structure (SMILES): CCN(CC)CCNC(=O)c1c(C)[nH]c(/C=C2\C(=O)Nc3ccc(F)cc32)c1C [Sunitinib]

efflux of preloaded radiolabeled EβG induced by control substrates [1]: induced significant efflux
Structure (SMILES): CC[C@H](C)C(=O)O[C@H]1C[C@H](O)C=C2C=C[C@H](C)[C@H](CC[C@@H](O)C[C@@H](O)CC(=O)O)[C@H]21 [pravastatin]

pattern of efflux vs concentration in CCF assay ([1]; 1, 10 and 100 μmol/L): clearly dependent on concentration
Structure (SMILES): COC(=O)c1ccc2c(c1)NC(=O)/C2=C(\Nc1ccc(N(C)C(=O)CN2CCN(C)CC2)cc1)c1ccccc1 [Nintedanib]
